According to patent publication US9012497B2, “Cyclohexyl carbamate compounds as active anti-cellulite ingredients” (Symrise AG, priority 2010, dated 2015):

test system: 3T3-L1 cells; assay: Adipogenesis assay (in vitro), Nile Red lipid staining; assay type: cell-based; details: Mus musculus, mean values of at least 2 independent tests, read-out: Adipogenesis inhibition IC50
Experimental: 3T3-L1 cells (mouse embryonic fibroblast-like adipocyte cell line) are seeded in a 48-well plate with collagen I-coating in a concentration of 3×10^4 cells/well. After 72 h cultivation at 37° C. and 5% CO2 in DMEM (Dulbecco's Modified Eagle Medium), enriched with 10% calf serum, various concentrations of the test substances in DMEM, enriched with 10% foetal calf serum and to which are added 1 μg/ml insulin, 0.25 μM dexamethasone and 0.5 mM IBMX (3-isobutyl-1-methylxanthine), are added and incubated for a further 48 h. A media change takes place, in that DMEM, enriched with 10% foetal calf serum and with 1 μg/ml insulin added, are applied. After renewed cultivation for 48 h, a further media change takes place, in which DMEM, enriched with 10% foetal calf serum, is applied.
After a further incubation for 72 h, the intracellularly stored lipids are quantified as a measure for the differentiation of the cells by measuring the fluorescence after staining of the lipids with the fluorescent dye Nile Red.
The inhibition of the adipogenesis in the presence of the test substances is calculated according to the following equation:
[formula] wherein RFU test substance=relative fluorescent units of the wells with test substance and with cells RFU control=relative fluorescent units of the wells without test substance, but with cells RFU control without cells=relative fluorescent units of the wells without test substance and without cells The IC50 is calculated from the adipogenesis inhibition [%] in a series of dilutions of tested samples. This is the concentration at which the adipogenesis is 50% inhibited.

Row | SMILES | IC50 [µM]
1 | CCNC(=O)OC1CCCC(C)C1C (stereo not shown) [BIO1581, Ethyl-carbamic acid 2,3-dimethyl-cyclohexyl ester] | 160
2 | C=C(C)C1CCC(C)CC1OC(=O)NCCCC (stereo not shown) [BIO1615, Butyl-carbamic acid 2-isopropenyl-5-methyl-cyclohexyl ester] | 160
3 | CC1CCCC(OC(=O)Nc2ccccc2O)C1C (stereo not shown) [BIO1643, (2-Hydroxy-phenyl)-carbamic acid 2,3-dimethyl-cyclohexyl ester] | 14
4 | CC1CC(C)CC(OC(=O)Nc2ccccc2)C1 (stereo not shown) [BIO1685, Phenyl-carbamic acid 3,5-dimethyl-cyclohexyl ester] | 340
5 | COc1ccccc1NC(=O)OC1C(C)CCC(C)C1C (stereo not shown) [BIO1701, (2-Methoxy-phenyl)-carbamic acid 2,3,6-trimethyl-cyclohexyl ester] | 110
6 | COc1ccccc1NC(=O)OC1CC(C)CC(C)(C)C1 (stereo not shown) [BIO1703, (2-Methoxy-phenyl)-carbamic acid 3,3,5-trimethyl-cyclohexyl ester] | 51
7 | O=C(Nc1ccccc1)OC1CCCCC1 [BIO1741, Phenyl-carbamic acid cyclohexyl ester] | 440
8 | CC1CC(C)CC(OC(=O)NC2CCCCC2)C1 (stereo not shown) [BIO1743, Cyclohexyl-carbamic acid 3,5-dimethyl-cyclohexyl ester] | 91
9 | CC1CC(C)CC(OC(=O)NCc2ccccc2)C1 (stereo not shown) [BIO1745, Benzyl-carbamic acid 3,5-dimethyl-cyclohexyl ester] | 120
10 | CC(C)(C)C1CCC(OC(=O)NC2CCCCC2)CC1 (stereo not shown) [BIO1747, Cyclohexyl-carbamic acid 4-tert-butyl-cyclohexyl ester] | 120
11 | CC(C)C1CCCCC1OC(=O)NCc1ccccc1 (stereo not shown) [BIO1748, Benzyl-carbamic acid 2-isopropyl-cyclohexyl ester] | 59
12 | Cc1ccc(NC(=O)OC2CC(C)CC(C)C2)cc1 (stereo not shown) [BIO1822, p-Tolyl-carbamic acid 3,5-dimethyl-cyclohexyl ester] | 170
13 | Cc1ccc(NC(=O)OC2CCCCC2C(C)C)cc1 (stereo not shown) [BIO1824, p-Tolyl-carbamic acid 2-isopropyl-cyclohexyl ester] | 92
14 | CCCCNC(=O)OC1CC(C)CC(C)C1 (stereo not shown) [BIO1840, Butyl-carbamic acid 3,5-dimethyl-cyclohexyl ester] | 160
15 | CCCCNC(=O)OC1CCCC(C)C1C (stereo not shown) [BIO1842, Butyl-carbamic acid 2,3-dimethyl-cyclohexyl ester] | 150
16 | CCCCCCNC(=O)OC1CC(C)CC(C)(C)C1 (stereo not shown) [BIO1850, Hexyl-carbamic acid 3,3,5-trimethyl-cyclohexyl ester] | 360
17 | CCCCCCNC(=O)OC1CCCCC1C(C)C (stereo not shown) [BIO1851, Hexyl-carbamic acid 2-isopropyl-cyclohexyl ester] | 86

molecular target: T1, pancreatic lipase (PL) (Sus scrofa, UniProt P00591); assay: Inhibition of PL, MUF oleate hydrolysis; assay type: biochemical; details: mean values of at least 2 independent tests
T1 construct: purchased Sigma-Aldrich
T1 sequence (P00591 1-450): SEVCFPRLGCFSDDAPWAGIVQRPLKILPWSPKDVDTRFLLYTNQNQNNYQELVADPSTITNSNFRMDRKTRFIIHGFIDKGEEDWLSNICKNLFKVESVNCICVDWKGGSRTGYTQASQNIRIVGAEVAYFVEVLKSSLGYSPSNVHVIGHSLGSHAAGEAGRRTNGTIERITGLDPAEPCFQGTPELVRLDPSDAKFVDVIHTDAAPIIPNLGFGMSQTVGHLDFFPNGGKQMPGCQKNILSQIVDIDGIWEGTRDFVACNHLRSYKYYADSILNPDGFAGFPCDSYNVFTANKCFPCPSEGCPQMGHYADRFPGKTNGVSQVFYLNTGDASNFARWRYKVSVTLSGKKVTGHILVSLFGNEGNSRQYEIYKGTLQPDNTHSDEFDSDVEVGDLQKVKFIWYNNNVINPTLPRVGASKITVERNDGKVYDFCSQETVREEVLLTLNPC
From the text: (§1) Lipogenesis is perceived as the storage of triglycerides in adipocytes. The inhibition of this storage can take place by means of the inhibition of the activity of extracellular lipoprotein lipase (LPL) in that the hydrolysis of extracellular triglycerides and therefore the absorption of free fatty acids by adipocytes are reduced. As a preliminary test, the inhibition of pancreatic lipase (PL) is investigated.
PL (Sigma-Aldrich), in the presence of test substances in different use concentrations has methylumbelliferyl oleate (MUF oleate) added as a substrate. Fluorescent methylumelliferon (MUF), is produced by hydrolysis of the MUF oleate by PL and is quantified. The inhibition of the hydrolysis of the MUF oleate is a measure of the inhibition of activity of the PL.
[formula] wherein MUF test substance=MUF concentration of the wells with test substance and with PL MUF control=MUF concentration of the wells without test substance, but with PL MUF control without PL=MUF concentration of the wells without test substance and without PL
The IC50 is calculated from the inhibition of the PL [%] in a series of dilutions of tested samples. This is the concentration, at which the activity of the PL is 50% inhibited.

Row | SMILES | IC50 [µM]
18 | CCNC(=O)OC1CC(C)CC(C)C1 (mixture of isomers) [BIO1561, Ethyl-carbamic acid 3,5-dimethyl-cyclohexyl ester] | 400
19 | CCNC(=O)OC1CCC(C(C)C)C(C)C1 (stereo not shown) [BIO1560, Ethyl-carbamic acid 4-isopropyl-3-methyl-cyclohexyl ester] | 560
20 | CCNC(=O)OC1CCCC(C)C1C (stereo not shown) [BIO1581, Ethyl-carbamic acid 2,3-dimethyl-cyclohexyl ester] | 240
21 | CCNC(=O)OC1CCC(C)C(C)C1 (stereo not shown) [BIO1582, Ethyl-carbamic acid 3,4-dimethyl-cyclohexyl ester] | 420
22 | C=C(C)C1CCC(C)CC1OC(=O)NCCCC (stereo not shown) [BIO1615, Butyl-carbamic acid 2-isopropenyl-5-methyl-cyclohexyl ester] | 340
23 | CC1CCCC(OC(=O)Nc2ccccc2O)C1C (stereo not shown) [BIO1643, (2-Hydroxy-phenyl)-carbamic acid 2,3-dimethyl-cyclohexyl ester] | 420
24 | COc1ccccc1NC(=O)OC1C(C)CCC(C)C1C (stereo not shown) [BIO1701, (2-Methoxy-phenyl)-carbamic acid 2,3,6-trimethyl-cyclohexyl ester] | 470
25 | COc1ccccc1NC(=O)OC1CC(C)CC(C)(C)C1 (stereo not shown) [BIO1703, (2-Methoxy-phenyl)-carbamic acid 3,3,5-trimethyl-cyclohexyl ester] | 1860
26 | COc1ccccc1NC(=O)OC1CCCCC1C(C)C (stereo not shown) [BIO1744, (2-Methoxy-phenyl)-carbamic acid 2-isopropyl-cyclohexyl ester] | 230
27 | CC1CC(C)CC(OC(=O)NCc2ccccc2)C1 (stereo not shown) [BIO1745, Benzyl-carbamic acid 3,5-dimethyl-cyclohexyl ester] | 130
28 | CC(C)C1CCCCC1OC(=O)NCc1ccccc1 (stereo not shown) [BIO1748, Benzyl-carbamic acid 2-isopropyl-cyclohexyl ester] | 2170
29 | CCCCNC(=O)OC1CCCC(C)C1 (stereo not shown) [BIO1821, Butyl-carbamic acid 3-methyl-cyclohexyl ester] | 510
30 | CCCCNC(=O)OC1CC(C)CC(C)C1 (stereo not shown) [BIO1840, Butyl-carbamic acid 3,5-dimethyl-cyclohexyl ester] | 550
31 | CCCCNC(=O)OC1CCCC(C)C1C (stereo not shown) [BIO1842, Butyl-carbamic acid 2,3-dimethyl-cyclohexyl ester] | 670
32 | CCCCCCNC(=O)OC1CC(C)CC(C)(C)C1 (stereo not shown) [BIO1850, Hexyl-carbamic acid 3,3,5-trimethyl-cyclohexyl ester] | 520
33 | CCCCCCNC(=O)OC1CCCCC1C(C)C (stereo not shown) [BIO1851, Hexyl-carbamic acid 2-isopropyl-cyclohexyl ester] | 1240

molecular target: T2, lipoprotein lipase (LPL) (Mus musculus, UniProt P11152); assay: Inhibition of LPL (lipogenesis assay), MUF oleate hydrolysis; assay type: biochemical; details: LPL obtained from differentiated 3T3-L1 cells; mean values of at least 2 independent tests
T2 construct: endogenous in cells; host or cells: differentiated 3T3-L1 cells (mouse); heparin-released supernatant
T2 sequence (P11152 28-474): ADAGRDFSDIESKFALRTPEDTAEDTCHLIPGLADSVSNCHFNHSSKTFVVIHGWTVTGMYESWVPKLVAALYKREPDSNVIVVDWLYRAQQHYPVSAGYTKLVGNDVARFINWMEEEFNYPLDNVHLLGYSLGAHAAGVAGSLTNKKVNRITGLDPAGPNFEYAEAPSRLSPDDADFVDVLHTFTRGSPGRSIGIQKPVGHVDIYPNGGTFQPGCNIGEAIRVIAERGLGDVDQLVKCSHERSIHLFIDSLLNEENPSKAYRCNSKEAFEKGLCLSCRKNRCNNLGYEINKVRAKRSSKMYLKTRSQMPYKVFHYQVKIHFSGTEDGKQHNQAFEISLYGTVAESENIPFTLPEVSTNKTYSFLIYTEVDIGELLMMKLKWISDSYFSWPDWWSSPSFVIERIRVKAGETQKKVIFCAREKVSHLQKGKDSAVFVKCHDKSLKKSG
From the text: as §1
The results of the inhibition of the PL are used as a preliminary test and are confirmed on LPL. To obtain LPL, 3T3-L1 cells (mouse embryonic fibroblast-like adipocyte cell line) are seeded in a 6-well plate with collagen I-coating in a concentration of 3×10^5 cells/well. The cultivation and differentiation of the cells takes place analogously to the details in Example 2 (adipogenesis assay). During the differentiation LPL is increasingly expressed. The LPL is present in a membrane-bound state and is released by one hour incubation with heparin solution at 2-8° C. to the supernatant of the cells.
The LPL thus obtained, in the presence of test substances in different use concentrations, has methylumbelliferyl oleate (MUF oleate) added as the substrate. Fluorescent methylumbelliferyl (MUF) is produced by hydrolysis of the MUF oleate by LPL and is quantified. The inhibition of the hydrolysis of the MUF oleate is a measure of the inhibition of the activity of the LPL and therefore the lipogenesis.
[formula] wherein MUF test substance=MUF concentration of the wells with test substance and with LPL MUF control=MUF concentration of the wells without test substance, but with LPL MUF control without LPL=MUF concentration of the wells without test substance and without LPL
The IC50 is calculated from the inhibition of the LPL [%] in a series of dilutions of tested samples. This is the concentration at which the activity of the LPL and therefore the lipogenesis is 50% inhibited.

Row | SMILES | IC50 [µM]
34 | C=C(C)C1CCC(C)CC1OC(=O)NCCCC (stereo not shown) [BIO1615, Butyl-carbamic acid 2-isopropenyl-5-methyl-cyclohexyl ester] | 870
35 | CCCCCCNC(=O)OC1CC(C)CC(C)(C)C1 (stereo not shown) [BIO1850, Hexyl-carbamic acid 3,3,5-trimethyl-cyclohexyl ester] | 680

test system: 3T3-L1 cells; assay: Lipolysis assay, in vitro on 3T3-L1 cells, free glycerol release; assay type: cell-based; details: Mus musculus; differentiated 3T3-L1 cells, about 20 hours of incubation; mean values from at least 2 independent tests; read-out: Stimulation of lipolysis EC50
Experimental: 3T3-L1 cells (mouse embryonic fibroblast-like adipocyte cell line) are seeded in a 48-well plate with collagen I-coating in a concentration of 3×10^4 cells/well. The cultivation and differentiation of the cells takes place analogously to the details in Example 2 (adipogenesis assay).
Various concentrations of the test substances are applied to the cells in DMEM, with bovine serum albumen added. After about 20 hours of incubation, the quantification of free glycerol in the supernatant of the cells takes place, which is released by the cells after hydrolysis of triglycerides in the cells and is a measure of the lipolysis of the cells. The quantification of the free glycerol is carried out based on an enzymatic method with a free glycerol reagent.
The stimulation of the lipolysis in the presence of test substances is calculated according to the following equation:
[formula] wherein A test substance=absorption of the wells with test substance and with cells A test substance without cells=absorption of the wells with test substance without cells (absorption control) A control=absorption of the wells without test substance, but with cells A control without cells=absorption of the wells without test substance and without cells
The EC50 is calculated from the lipolysis stimulation [%] in a series of dilutions of tested samples. This is the concentration at which the lipolysis is 50% stimulated.

Row | SMILES | EC50 [µM]
36 | CCNC(=O)OC1CC2CCC1(C)C2(C)C (stereo not shown) [BIO1573, Ethyl-carbamic acid 1,7,7-trimethyl-bicyclo[2.2.1]hept-2-yl ester] | 350
37 | C=C(C)C1CCC(C)CC1OC(=O)NCCCC (stereo not shown) [BIO1615, Butyl-carbamic acid 2-isopropenyl-5-methyl-cyclohexyl ester] | 820
38 | CC1CC(C)CC(OC(=O)Nc2ccccc2)C1 (stereo not shown) [BIO1685, Phenyl-carbamic acid 3,5-dimethyl-cyclohexyl ester] | 600
39 | O=C(Nc1ccccc1)OC1CCCCC1 [BIO1741, Phenyl-carbamic acid cyclohexyl ester] | 360
40 | CC1CC(C)CC(OC(=O)NC2CCCCC2)C1 (stereo not shown) [BIO1743, Cyclohexyl-carbamic acid 3,5-dimethyl-cyclohexyl ester] | 1890
41 | CC(C)(C)C1CCC(OC(=O)NC2CCCCC2)CC1 (stereo not shown) [BIO1747, Cyclohexyl-carbamic acid 4-tert-butyl-cyclohexyl ester] | 610
42 | CC(C)C1CCCCC1OC(=O)NCc1ccccc1 (stereo not shown) [BIO1748, Benzyl-carbamic acid 2-isopropyl-cyclohexyl ester] | 810
43 | Cc1ccc(NC(=O)OC2CCCCC2C(C)C)cc1 (stereo not shown) [BIO1824, p-Tolyl-carbamic acid 2-isopropyl-cyclohexyl ester] | 510
44 | CCCCNC(=O)OC1CC(C)CC(C)C1 (stereo not shown) [BIO1840, Butyl-carbamic acid 3,5-dimethyl-cyclohexyl ester] | 700
45 | CCCCNC(=O)OC1CCCC(C)C1C (stereo not shown) [BIO1842, Butyl-carbamic acid 2,3-dimethyl-cyclohexyl ester] | 230
46 | CCCCCCNC(=O)OC1CCCCC1C(C)C (stereo not shown) [BIO1851, Hexyl-carbamic acid 2-isopropyl-cyclohexyl ester] | 1170
